From PubChem BioAssay (NCI)
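Where inhibition never reached the appropriate level, the endpoint shown equals the highest concentration tested. Otherwise, values were interpolated linearly from a five-concentration, 48-hour dose response in 96-well plates. Definition used: TGI = concentration required for complete inhibition of growth.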

How the values were obtained:
Experiment in all cases: NCI tumour cell line growth inhibition, 48 h
[1] = tested on: EKVX NSCLC
[2] = tested on: SK-OV-3 ovarian
[3] = tested on: SK-MEL-2 melanoma
[4] = tested on: ACHN renal
[5] = tested on: HT29 colon
[6] = tested on: SW-620 colon
[7] = tested on: MDA-MB-435
[8] = tested on: HL-60(TB) leukemia
[9] = tested on: K-562 leukemia
[10] = tested on: OVCAR-3 ovarian
[11] = tested on: MDA-MB-231 breast
[12] = tested on: U251 CNS
[13] = tested on: MALME-3M melanoma
[14] = tested on: NCI-H460 lung
[15] = tested on: MCF7 breast
[16] = tested on: NCI-H23 lung
[17] = tested on: HCT-15 colon
[18] = tested on: MOLT-4 leukemia
[19] = tested on: A498 renal

| SMILES | TGI [1] [µM] | TGI [2] [µM] | TGI [3] [µM] | TGI [4] [µM] | TGI [5] [µM] | TGI [6] [µM] | TGI [7] [µM] | TGI [8] [µM] | TGI [9] [µM] | TGI [10] [µM] | TGI [11] [µM] | TGI [12] [µM] | TGI [13] [µM] | TGI [14] [µM] | TGI [15] [µM] | TGI [16] [µM] | TGI [17] [µM] | TGI [18] [µM] | TGI [19] [µM] |
| --- | --- | --- | --- | --- | --- | --- | --- | --- | --- | --- | --- | --- | --- | --- | --- | --- | --- | --- | --- |
| O=[N+]([O-])c1cc(-[n+]2cc([O-])on2)ccc1Cl | 37.8 | > 100 | 46.3 | 29.5 | 28.5 | 26.2 | > 100 | > 100 | > 100 | > 100 | 37.7 | 30.7 | 32.9 | > 100 | 43.3 | 26.6 | 73.7 |  |  |
| O=C(O)CCCNc1ncc2c(n1)-c1ccccc1OC2 | > 100 | > 100 | > 100 | > 100 | > 100 | > 100 | > 100 | > 100 | > 100 | > 100 | > 100 | > 100 | > 100 | > 100 | > 100 | > 100 | > 100 | > 100 |  |
| Cc1cc(S(=O)(=O)Nc2nnc3ccccn23)c(S)cc1Cl | > 100 |  | > 100 | > 100 | > 100 | > 100 | > 100 | > 100 | > 100 | > 100 | > 100 | > 100 | > 100 | > 100 | > 100 | > 100 | > 100 | > 100 | > 100 |
| O=c1[nH][nH]c(=O)n1/N=C/c1ccccc1 | > 100 | > 100 | > 100 | > 100 | > 100 | > 100 | > 100 | > 100 | > 100 | > 100 | > 100 | > 100 |  | > 100 | > 100 | > 100 | > 100 | > 100 | > 100 |
| CC(C)OC(=O)[C@H]1ON2O[C@H](O[C@@H]3CCCC[C@H]3c3ccccc3)C([Si](C)(C)c3ccccc3)[C@H]3OC(=O)[C@@H]1C32 (stereo not given in full) | > 100 | > 100 | > 100 | > 100 | > 100 | > 100 | > 100 | > 100 | > 100 | > 100 | > 100 | > 100 |  | > 100 | > 100 | > 100 | > 100 | > 100 | > 100 |
| CS(=O)(=O)OCCCSCCSCCCOS(C)(=O)=O | > 100 | > 100 |  |  | > 100 | > 100 | > 100 | > 100 | > 100 | > 100 | > 100 | > 100 |  | > 100 | > 100 | > 100 | > 100 | > 100 |  |
| CCOC(=O)OC1C(Br)C2CCC1(C)C2(C)C (stereo not given) | 29.4 | 29.5 |  | 29.2 | 18.6 | 30.8 | 23.6 | 20.1 | 20.1 | 28.8 | 24.9 | 26.6 | 31.3 | 16.6 | 31.3 | 31.9 | 27.5 | 16.6 |  |
| CCOC(=O)C1C(c2ccc(OC)cc2)c2c([nH][nH]c2=O)CC1(C)O (stereo not given) | > 100 |  | > 100 | > 100 | > 100 | > 100 | > 100 | > 100 |  | > 100 | > 100 | > 100 | > 100 | > 100 | > 100 | > 100 | > 100 | > 100 | > 100 |
| Cc1cn(Cc2cccc(C3=NCCCN3)c2)c(=O)n(Cc2cccc(C3=NCCCN3)c2)c1=O | > 100 | > 100 | > 100 | > 100 |  | > 100 | > 100 | > 100 | > 100 | > 100 | > 100 | > 100 | > 100 | > 100 | > 100 | > 100 | > 100 | > 100 | > 100 |
| CCOC(=O)NN(C(=O)OCC)C(=C(C1=CCCCC1)N1CCOCC1)N(NC(=O)OCC)C(=O)OCC | > 100 | > 100 |  | > 100 | > 100 | > 100 | > 100 | > 100 | > 100 | > 100 | > 100 | > 100 | > 100 | > 100 | > 100 | > 100 | > 100 | > 100 | > 100 |
| CO[C@@]12C[C@@H](C)[C@]34O[C@H]3C[C@]3(C)O[C@]43CC1=C(C)C(=O)O2 | > 100 | > 100 | > 100 | > 100 | > 100 | > 100 | > 100 |  | > 100 | > 100 | > 100 | > 100 | > 100 | > 100 | > 100 | > 100 | > 100 |  | > 100 |
| COc1ccc(N=Nc2ccc3oc(=O)c(C(=O)Nc4ccccc4C)cc3c2)cc1 | > 10 | > 10 | > 10 | > 10 | > 10 | > 10 | > 10 |  |  | > 10 | > 10 | > 10 | > 10 | > 10 | > 10 | > 10 | > 10 | > 10 | > 10 |
| COC(=O)c1ccc(C)cc1CC1Cc2cccc(C)c2C1=O (stereo not given) | 13.9 | 92 | 17.1 | 97.6 | 6.06 | > 100 | 3.34 |  | 9.79 | 30.7 | 51.9 | 17.4 | 31.3 | 22.7 | 7.38 | > 100 | 12.5 | 18.4 |  |
